What all share (type): in vivo
The test system of assay [1] is Plasmodiophora brassicae. Nature of the assay: Cabbage clubroot control test, pot test, cyazofamid vs chlorothalonil (Example 3 / Comparative Example 3). The arrangement: key to Disease control value: control value = (1 − treated/control severity) × 100; key to Disease severity: severity = Σ(plants × index 0-4)/(plants × 4) × 100. The following applies: for Disease control value / Disease severity: 57 days after settled planting. An excerpt:
(§1) Disease severity={Σ(number of each index of diseased plants×disease index)/(number of plants surveyed×4)}×100
(§2) Disease control value={1−(treatment disease severity/control disease severity)}×100
(§3) 0: No adhesion of clubroot, 1: clubroot adhesion to lateral root, 2: clubroot adhesion to the entire lateral root or clubroot adhesion to a part of tap root, 3: adhesion of large clubroot to tap root, and 4: clubroot adhesion to the entire tap root.
A spore suspension of Plasmodiophora brassicae (fungus density: 1×10^5 fungi/g dry soil) was inoculated into a sterilization soil adjusted to pH of 6.0 with Sandoseto and after introducing the resulting test soil into a 1/5000 a pot, a cabbage (variety: Okina) seedling grown in a cell seedling tray (128 cells/seedling box) was settled-planted by establishing five plantings for each test section having a size of 0.02 m^2 for one plant. Immediately, 4 days, 7 days and 14 days after settled planting, the chemical solution for spraying prepared by the same method as in Example 1(1) was drenched into the soil in a ratio of 250 ml/plant. Fifty-seven days after the settled planting, the number of each index of clubroot adhesion to the root was investigated. For comparison, the same test was carried out on a control section where a soil drench treatment with the chemical solution for spraying was not applied.
A chemical solution for spraying in a concentration of 800 ppm was prepared by diluting 40% chlorothalonil (Daconil 1000 [trade name], manufactured by SDS K.K.) with water.
The test was carried out by the same procedure as in Example 3 except that the chemical solution (cyazofamid) for spraying was replaced by the chemical solution (chlorothalonil) for spraying prepared in Comparative Example 3(1).
The disease severity and disease control value of Example 3 and Comparative Example 3 were determined by the same methods as in Example 1 and Comparative Example 1. In addition, the weight of cabbage in the aerial part was measured. Furthermore, the test result was shown by the average value of five plantings.

The test system of assay [2] is Plasmodiophora brassicae. Nature of the assay: Cabbage clubroot control test, pot test (Example 1 / Comparative Example 1). The following applies: 0.3% dust formulation 30 kg/10 a soil incorporation just before settled planting. How it is done: A chemical solution for spraying at 50 ppm was prepared by diluting 9.4% w/w cyazofamid (Ranman [trade name] flowable, manufactured by Ishihara Sangyo Kaisha Ltd.) with water.
A spore suspension of Plasmodiophora brassicae (fungus density: 1×10^5 fungi/g dry soil) was inoculated into a sterilization soil adjusted to pH of 6.2 with Sandoseto and after introducing the resulting test soil into a 1/5000 a pot, a cabbage (variety: Okina) seedling grown in a cell seedling tray (128 cells/seedling box) was settled-planted by establishing five plantings for each test section having a size of 0.02 m^2 per one plant. Just after the settled planting, 3 days, 7 days, 10 days and 14 days after the settled planting, the chemical solution for spraying prepared in (1) was applied by soil drench at a ratio of 250 ml/plant. Sixty days after the settled planting, the number of each index of clubroot adhesion to the root was investigated. For comparison, the same test was carried out on a control section where a soil drench treatment with the chemical solution for spraying was not applied.
The test was carried out by the same method as in Example 1(2) except that in place of the soil drench treatment with the chemical solution for spraying, 30 kg/10 a of 0.3% flusulfamide (dust formulation of Nebijin [trade name], manufactured by Mitsui Chemicals Agro, Inc.) was applied to the test soil just before settled planting and incorporated into the soil by means of a small mixer (interfusion depth: 15 cm).
In Example 1 and Comparative Example 1, the adhesion of clubroot was investigated by pulling out the root of cabbage. The adhesion of clubroot was investigated by calculating the disease severity using the following formula. In addition, the weight of cabbage in the aerial part was measured. Furthermore, the test result was shown by the average value of five plantings.
as §1, §2, §3

The subject of assay [3] is Plasmodiophora brassicae. Nature of the assay: Influence of rainfall on clubroot control effect in cabbage (Example 4 / Comparative Example 4). The following applies: pot; for Weight in the aerial part / Disease control value / Disease severity: 0.3% dust formulation 30 kg/10 a soil incorporation just before settled planting; for Disease control value / Disease severity: 67 days after settled planting. How it is done:
as §1, §2, §3
The test was carried out by the same method as in Example 3 except for preparing an area subjected to a rainfall treatment of 20 mm by means of a rainfall apparatus (a treatment at a rate of 10 mm/hour for 2 hours) the day before treatment, and an area not subjected to the rainfall treatment. Sixty-seven days after the settled planting, the number of each index of clubroot adhesion to the root was investigated. For comparison, the same test was carried out on a control section where a soil drench treatment with the chemical solution for spraying was not applied.
The test was carried out by the same method as in Example 4 except that in place of the soil drench treatment with the chemical solution for spraying, 30 kg/10 a of 0.3% flusulfamide (dust formulation of Nebijin [trade name], manufactured by Mitsui Chemicals Agro, Inc.) was applied to the test soil just before the settled planting and incorporated into the soil by means of a small mixer (interfusion depth: 15 cm).
The disease severity and disease control value of Example 4 and Comparative Example 4 were determined by the same methods as in Example 1 and Comparative Example 1. In addition, the weight of cabbage in the aerial part was measured. Furthermore, the test result was shown by the average value of five plantings.

Setting [4] is: 800 ppm soil drench 250 ml/plant 4 days after settled planting.
The mark [5] stands for this setting: 800 ppm soil drench 250 ml/plant 7 days after settled planting.
Setting [6] is: 800 ppm soil drench 250 ml/plant 14 days after settled planting.
[7] abbreviates: 800 ppm soil drench 250 ml/plant just after settled planting.
Setting [8] is: 800 ppm soil drench after settled planting.
Setting [9] is: with rainfall treatment, dust formulation soil incorporation just before settled planting.

Molecules are shown by their SMILES.

Regarding `N#Cc1c(Cl)c(Cl)c(Cl)c(C#N)c1Cl` [chlorothalonil], in the assay on Plasmodiophora brassicae [1] (setting [4]), the “Weight in the aerial part” value was found to be 92 g, the Disease control value is 25 and the Disease severity is reported as 60. Moreover, in the assay on Plasmodiophora brassicae [1] (setting [5]), the “Weight in the aerial part” value came out at 69 g, the Disease control value came to 0 and the Disease severity is recorded as 90. In addition, in the assay on Plasmodiophora brassicae [1] (setting [6]), the “Weight in the aerial part” value came to 70 g, the Disease control value was determined as 0 and the Disease severity stood at 90. In addition, in the assay with Plasmodiophora brassicae [1] (setting [7]), the “Weight in the aerial part” value worked out at 96 g, the Disease control value was found to be 56 and the Disease severity is 35. Further, in the assay with Plasmodiophora brassicae [1] (setting [8]), the Control effect entry is given as “a control effect which is sufficient for practical use was not obtained” and the “Effect of the disease on weight in the aerial part” value is recorded as “greatly affected by the disease”.

Regarding `O=[N+]([O-])c1ccc(NS(=O)(=O)c2ccc(Cl)c(C(F)(F)F)c2)c(Cl)c1` [flusulfamide], the “Weight in the aerial part” value in the assay on Plasmodiophora brassicae [2] is 173 g. Moreover, in the assay with Plasmodiophora brassicae [2] (60 days after settled planting), the Disease control value stood at 100 and the Disease severity was 0. Further, in the assay with Plasmodiophora brassicae [3] (with rainfall treatment 20 mm), the “Weight in the aerial part” value was found to be 104 g, the Disease control value came out at 50 and the Disease severity was determined as 35. In the assay on Plasmodiophora brassicae [3] (setting [9]), the Control effect result was “a practical control effect was not obtained” and the “Effect of the disease on weight in the aerial part” value is listed as “greatly affected by the disease”. Moreover, in the assay with Plasmodiophora brassicae [3] (without rainfall treatment), the “Weight in the aerial part” value is given as 118 g, the Disease control value is listed as 100 and the Disease severity turned out to be 0.

For the origin of these results see patent US20130296393A1, “METHOD FOR CONTROLLING CLUBROOT” (ISHIHARA SANGYO KAISHA, LTD., priority 2011, published 2013).
